Experiments:
human RIPK3 = human RIPK3 (Homo sapiens (Human), UniProt Q9Y572); assay: KINOMEscan binding assay, human RIPK3; details: equilibrium dissociation constant
Method in brief: (§1)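 Competition binding format with qPCR detection. Kinases, either phage-fused from E. coli lysates or HEK-293-derived with a DNA tag, bound ligand-coated beads in the presence of compound (11 points, 3-fold steps, 1% DMSO, top usually 30,000 nM). Kd from nonlinear Hill fitting with slope −1.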

human RIPK1 = human RIPK1 (Homo sapiens (Human), UniProt Q13546); assay: KINOMEscan binding assay, human RIPK1; details: equilibrium dissociation constant
Method in brief: as §1

human MLKL (full length) = human MLKL (full length) (Homo sapiens (Human), UniProt Q8NB16); assay: KINOMEscan binding assay, human MLKL (full length); details: equilibrium dissociation constant
Method in brief: as §1

[1] = tested on: U937 human histiocytic leukemia cell line; assay: Inhibition of TSQ induced necroptosis in U937 cells (CellTitre-Glo); details: Homo sapiens, U-937, TSQ cocktail (TNF, Smac mimetic, Q-VD-OPh), 48 hours, read-out: Inhibition of TSQ-induced necroptosis (IC50 cell-based assay)
Method in brief: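 Necroptosis was induced with TNF-Fc (100 ng/ml), Smac mimetic (500 nM) and Q-VD-OPh (10 μM) in 20000 U937 cells/well exposed to a 10-point, 3-fold compound series (top 36 μM, 0.3% DMSO). ATP luminescence read after 48 h; 4-parameter fit gave IC50. Parallel TSQ-free wells assessed compound toxicity.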

human MLKL (full length), sequence (Q8NB16 whole entry): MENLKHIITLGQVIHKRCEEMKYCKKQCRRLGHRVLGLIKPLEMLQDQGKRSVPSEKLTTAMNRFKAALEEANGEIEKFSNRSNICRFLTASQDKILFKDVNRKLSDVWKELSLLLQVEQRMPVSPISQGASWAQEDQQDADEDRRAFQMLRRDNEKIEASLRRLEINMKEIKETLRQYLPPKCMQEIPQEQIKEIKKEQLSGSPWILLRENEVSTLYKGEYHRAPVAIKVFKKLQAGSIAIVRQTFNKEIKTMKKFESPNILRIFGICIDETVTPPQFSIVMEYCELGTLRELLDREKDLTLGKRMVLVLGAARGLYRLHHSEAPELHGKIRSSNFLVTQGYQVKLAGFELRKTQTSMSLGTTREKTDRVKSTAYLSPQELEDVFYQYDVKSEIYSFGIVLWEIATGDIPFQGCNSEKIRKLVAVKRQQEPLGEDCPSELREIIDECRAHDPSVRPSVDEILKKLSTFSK
human RIPK3, sequence (Q9Y572 whole entry, the tested form may be a part): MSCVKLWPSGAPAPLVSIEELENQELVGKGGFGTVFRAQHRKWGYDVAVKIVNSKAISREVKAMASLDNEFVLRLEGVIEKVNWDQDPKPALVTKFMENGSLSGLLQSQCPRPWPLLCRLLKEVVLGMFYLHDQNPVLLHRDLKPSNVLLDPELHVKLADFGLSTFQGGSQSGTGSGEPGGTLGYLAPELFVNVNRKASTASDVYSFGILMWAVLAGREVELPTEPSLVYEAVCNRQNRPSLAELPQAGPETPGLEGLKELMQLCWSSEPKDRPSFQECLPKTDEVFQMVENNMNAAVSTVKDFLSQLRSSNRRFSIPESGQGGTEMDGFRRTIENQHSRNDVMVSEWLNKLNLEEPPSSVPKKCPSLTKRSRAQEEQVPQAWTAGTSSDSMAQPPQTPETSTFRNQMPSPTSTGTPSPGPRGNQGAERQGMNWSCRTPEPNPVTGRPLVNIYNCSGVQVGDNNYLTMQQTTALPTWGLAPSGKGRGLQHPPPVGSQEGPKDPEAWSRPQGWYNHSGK
human RIPK1, sequence (Q13546 whole entry): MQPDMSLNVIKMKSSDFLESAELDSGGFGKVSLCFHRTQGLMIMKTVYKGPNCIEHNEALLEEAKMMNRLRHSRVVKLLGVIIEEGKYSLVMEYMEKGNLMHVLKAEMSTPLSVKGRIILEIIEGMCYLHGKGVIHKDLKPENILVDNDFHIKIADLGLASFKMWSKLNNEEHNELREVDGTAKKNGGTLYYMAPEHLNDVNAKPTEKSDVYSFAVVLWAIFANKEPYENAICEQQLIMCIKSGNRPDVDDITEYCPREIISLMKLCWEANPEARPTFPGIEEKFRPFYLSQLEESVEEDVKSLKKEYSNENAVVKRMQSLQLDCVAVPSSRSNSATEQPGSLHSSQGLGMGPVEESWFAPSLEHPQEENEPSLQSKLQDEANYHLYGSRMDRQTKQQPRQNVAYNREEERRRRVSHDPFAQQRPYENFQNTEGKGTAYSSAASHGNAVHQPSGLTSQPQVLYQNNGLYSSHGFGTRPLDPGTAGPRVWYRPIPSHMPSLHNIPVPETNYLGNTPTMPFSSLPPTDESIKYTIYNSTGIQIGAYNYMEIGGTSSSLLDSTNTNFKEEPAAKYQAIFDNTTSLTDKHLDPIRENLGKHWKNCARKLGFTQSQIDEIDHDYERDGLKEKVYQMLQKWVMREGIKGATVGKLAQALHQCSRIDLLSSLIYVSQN

Row | Compound | Kd (human RIPK3) | Kd (human RIPK1) | Kd (human MLKL (full length)) | IC50 [1]
1 | C[C@H](Oc1cc(-c2nn(C)c3c(-c4cnn(C5CCOCC5)c4)cnc(N)c23)ccc1NS(=O)(=O)C(F)F)c1cccc(Cl)c1 [Compound 122, (S)-N-(4-(4-amino-1-methyl-7-(1-(tetrahydro-2H-pyran-4-yl)-1H-pyrazol-4-yl)-1H-pyrazolo[4,3-c]pyridin-3-yl)-2-(1-(3-chlorophenyl)ethoxy)phenyl)-1,1-difluoromethanesulfonamide] | > 10 µM | > 10 µM | < 0.001 µM | 0.01 to 1 µM
2 | C[C@H](Oc1cc(-c2nn(C)c3c(-c4ccc5c(cnn5C)c4)cnc(N)c23)ccc1NS(=O)(=O)C(F)F)c1ccc(F)cc1 [Compound 166, (S)-N-(4-(4-amino-1-methyl-7-(1-methyl-1H-indazol-5-yl)-1H-pyrazolo[4,3-c]pyridin-3-yl)-2-(1-(4-fluorophenyl)ethoxy)phenyl)-1,1-difluoromethanesulfonamide] | > 10 µM | > 10 µM | 0.001 to 0.1 µM | 0.01 to 1 µM
3 | C[C@H](Oc1cc(-c2nn(C)c3c(-c4cnn(CC(F)(F)F)c4)cnc(N)c23)ccc1NS(=O)(=O)C(F)F)c1ccc(F)cc1 [Compound 116, (S)-N-(4-(4-amino-1-methyl-7-(1-(2,2,2-trifluoroethyl)-1H-pyrazol-4-yl)-1H-pyrazolo[4,3-c]pyridin-3-yl)-2-(1-(4-fluorophenyl)ethoxy)phenyl)-1,1-difluoromethanesulfonamide] | > 10 µM | > 10 µM | 0.001 to 0.1 µM | < 0.01 µM
4 | C[C@H](Oc1cc(-c2nn(C)c3c(-c4cnn(C5CCCC5)c4)cnc(N)c23)ccc1NS(=O)(=O)C(F)F)c1ccc(F)cc1 [Compound 30, (S)-N-(4-(4-amino-7-(1-cyclopentyl-1H-pyrazol-4-yl)-1-methyl-1H-pyrazolo[4,3-c]pyridin-3-yl)-2-(1-(4-fluorophenyl)ethoxy)phenyl)-1,1-difluoromethanesulfonamide] | > 10 µM | > 10 µM | 0.001 to 0.1 µM | < 0.01 µM
5 | Cn1nc(-c2ccc(NS(=O)(=O)C(F)F)c(OCc3ccc(F)cc3)c2)c2c(N)ncc(-c3cnn(C4CCOCC4)c3)c21 [Compound 13, N-(4-(4-amino-1-methyl-7-(1-(tetrahydro-2H-pyran-4-yl)-1H-pyrazol-4-yl)-1H-pyrazolo[4,3-c]pyridin-3-yl)-2-((4-fluorobenzyl)oxy)phenyl)-1,1-difluoromethanesulfonamide] | > 10 µM | > 10 µM | < 0.001 µM | 0.01 to 1 µM
6 | CC(n1cc(-c2cnc(N)c3c(-c4ccc(NS(=O)(=O)C(F)F)c(O[C@@H](C)c5ccc(F)cc5)c4)nn(C)c23)cn1)C(F)(F)F (stereo partly drawn) [Compound 142, N-(4-(4-amino-1-methyl-7-(1-(1,1,1-trifluoropropan-2-yl)-1H-pyrazol-4-yl)-1H-pyrazolo[4,3-c]pyridin-3-yl)-2-((S)-1-(4-fluorophenyl)ethoxy)phenyl)-1,1-difluoromethanesulfonamide] | > 10 µM | > 10 µM | < 0.001 µM | 0.01 to 1 µM
7 | Cc1c(-c2cnc(N)c3c(-c4ccc(NS(=O)(=O)C(F)F)c(O[C@@H](C)c5ccc(F)cc5)c4)nn(C)c23)cnn1C1CCN(C)C(C)(C)C1 (stereo partly drawn) [Compound 157, N-(4-(4-amino-1-methyl-7-(5-methyl-1-(1,2,2-trimethylpiperidin-4-yl)-1H-pyrazol-4-yl)-1H-pyrazolo[4,3-c]pyridin-3-yl)-2-((S)-1-(4-fluorophenyl)ethoxy)phenyl)-1,1-difluoromethanesulfonamide] | > 10 µM | > 10 µM | 0.001 to 0.1 µM | 0.01 to 1 µM
8 | C[C@H](Oc1cc(-c2nn(C)c3c(-c4cnn(C5CCN(CC(F)(F)F)C(C)(C)C5)c4)cnc(N)c23)ccc1NS(=O)(=O)C(F)F)c1ccc(F)cc1 (stereo partly drawn) [Compound 167, N-(4-(4-amino-7-(1-(2,2-dimethyl-1-(2,2,2-trifluoroethyl)piperidin-4-yl)-1H-pyrazol-4-yl)-1-methyl-1H-pyrazolo[4,3-c]pyridin-3-yl)-2-((S)-1-(4-fluorophenyl)ethoxy)phenyl)-1,1-difluoromethanesulfonamide] | > 10 µM | > 10 µM | 0.001 to 0.1 µM | 0.01 to 1 µM
9 | [2H]C([2H])([2H])N1CCC(n2cc(-c3cnc(N)c4c(-c5ccc(NS(=O)(=O)C(F)F)c(O[C@@H](C)c6ccc(F)cc6)c5)nn(C)c34)cn2)CC1 [Compound 103] | > 10 µM | > 10 µM | < 0.001 µM | < 0.01 µM
10 | Cn1nc(-c2ccc(NS(=O)(=O)C(F)F)c(OCc3ccc(Cl)c(F)c3)c2)c2c(N)ncc(-c3cnn(C4CCOCC4)c3)c21 [Compound 132, N-(4-(4-amino-1-methyl-7-(1-(tetrahydro-2H-pyran-4-yl)-1H-pyrazol-4-yl)-1H-pyrazolo[4,3-c]pyridin-3-yl)-2-((4-chloro-3-fluorobenzyl)oxy)phenyl)-1,1-difluoromethanesulfonamide] | > 10 µM | > 10 µM | < 0.001 µM | 0.01 to 1 µM
11 | CC(=O)N1CCC(n2cc(-c3cnc(N)c4c(-c5ccc(NS(=O)(=O)C(F)F)c(O[C@@H](C)c6ccc(F)cc6)c5)nn(C)c34)cn2)CC1 [Compound 109, (S)—N-(4-(7-(1-(1-acetylpiperidin-4-yl)-1H-pyrazol-4-yl)-4-amino-1-methyl-1H-pyrazolo[4,3-c]pyridin-3-yl)-2-(1-(4-fluorophenyl)ethoxy)phenyl)-1,1-difluoromethanesulfonamide] | > 10 µM | > 10 µM | < 0.001 µM | < 0.01 µM
12 | C[C@H](Oc1cc(-c2nn(C)c3c(-c4cnn(C5CC6(C5)CN(C)C6)c4)cnc(N)c23)ccc1NS(=O)(=O)C(F)F)c1ccc(F)cc1 [Compound 99, (S)-N-(4-(4-amino-1-methyl-7-(1-(2-methyl-2-azaspiro[3.3]heptan-6-yl)-1H-pyrazol-4-yl)-1H-pyrazolo[4,3-c]pyridin-3-yl)-2-(1-(4-fluorophenyl)ethoxy)phenyl)-1,1-difluoromethanesulfonamide] | > 10 µM | > 10 µM | < 0.001 µM | 0.01 to 1 µM
13 | C[C@H](Oc1cc(-c2nn(C)c3c(-c4cnn(C5CCN(C)C6(CC6)C5)c4)cnc(N)c23)ccc1NS(=O)(=O)C(F)F)c1ccc(F)cc1 (stereo partly drawn) [Compound 145, N-(4-(4-amino-1-methyl-7-(1-(4-methyl-4-azaspiro[2.5]octan-7-yl)-1H-pyrazol-4-yl)-1H-pyrazolo[4,3-c]pyridin-3-yl)-2-((S)-1-(4-fluorophenyl)ethoxy)phenyl)-1,1-difluoromethanesulfonamide] | > 10 µM | > 10 µM | 0.001 to 0.1 µM | < 0.01 µM
14 | C[C@H](Oc1cc(-c2nn(C)c3c(-c4cnn(C(C)(C)CO)c4)cnc(N)c23)ccc1NS(=O)(=O)C(F)F)c1ccc(F)cc1 [Compound 97, (S)-N-(4-(4-amino-7-(1-(1-hydroxy-2-methylpropan-2-yl)-1H-pyrazol-4-yl)-1-methyl-1H-pyrazolo[4,3-c]pyridin-3-yl)-2-(1-(4-fluorophenyl)ethoxy)phenyl)-1,1-difluoromethanesulfonamide] | > 10 µM | > 10 µM | < 0.001 µM | 0.01 to 1 µM
15 | C[C@H](Oc1cc(-c2nn(C)c3c(-c4cnn(CCC(F)(F)F)c4)cnc(N)c23)ccc1NS(=O)(=O)C(F)F)c1ccc(F)cc1 [Compound 131, (S)-N-(4-(4-amino-1-methyl-7-(1-(3,3,3-trifluoropropyl)-1H-pyrazol-4-yl)-1H-pyrazolo[4,3-c]pyridin-3-yl)-2-(1-(4-fluorophenyl)ethoxy)phenyl)-1,1-difluoromethanesulfonamide] | > 10 µM | > 10 µM | 0.001 to 0.1 µM | 0.01 to 1 µM
16 | C[C@H](Oc1cc(-c2nn(C)c3c(-c4cnn(C5C[C@H]6CNC[C@H]6C5)c4)cnc(N)c23)ccc1NS(=O)(=O)C(F)F)c1ccc(F)cc1 (stereo partly drawn) [Compound 163, N-(4-(4-amino-1-methyl-7-(1-((3aR,6aS)-octahydrocyclopenta[c]pyrrol-5-yl)-1H-pyrazol-4-yl)-1H-pyrazolo[4,3-c]pyridin-3-yl)-2-((S)-1-(4-fluorophenyl)ethoxy)phenyl)-1,1-difluoromethanesulfonamide] | > 10 µM | > 10 µM | < 0.001 µM | 0.01 to 1 µM
17 | COCCn1cc(-c2cnc(N)c3c(-c4ccc(NS(=O)(=O)C(F)F)c(O[C@@H](C)c5ccc(F)cc5)c4)nn(C)c23)cn1 [Compound 29, (S)-N-(4-(4-amino-7-(1-(2-methoxyethyl)-1H-pyrazol-4-yl)-1-methyl-1H-pyrazolo[4,3-c]pyridin-3-yl)-2-(1-(4-fluorophenyl)ethoxy)phenyl)-1,1-difluoromethanesulfonamide] | > 10 µM | > 10 µM | < 0.001 µM | < 0.01 µM
18 | CC(C)N(C)C(=O)C(C)n1cc(-c2cnc(N)c3c(-c4ccc(NS(=O)(=O)C(F)F)c(O[C@@H](C)c5ccc(F)cc5)c4)nn(C)c23)cn1 (stereo partly drawn) [Compound 81, 2-(4-(4-amino-3-(4-((difluoromethyl)sulfonamido)-3-((S)-1-(4-fluorophenyl)ethoxy)phenyl)-1-methyl-1H-pyrazolo[4,3-c]pyridin-7-yl)-1H-pyrazol-1-yl)-N-isopropyl-N-methylpropanamide] | > 10 µM | > 10 µM | < 0.001 µM | < 0.01 µM

From patent US20250059188A1, “ARYLSULPHONAMIDE COMPOUNDS” (Anaxis Pharma Pty Ltd, priority 2021, published 2025)
